“Also recorded” adds a separate entry of the source.
Assays:
[1] = test system: hind limb muscle; assay: Rat hind limb muscle twitch study; format: in vivo, Sprague-Dawley rats
Protocol: FIG. 1 is a schematic diagram of a validated muscle twitch experimental set-up in the present disclosure. Here anesthetized Sprague-Dawley rats were prepared for muscle contraction assessment of their hindlimbs. The hind limbs were shaved and secured at the knee and ankle joints to prevent movement. The distal tendon of the targeted muscle was connected to a high-sensitivity force transducer to measure contractile force with precision. Electrical stimulation was delivered via electrodes positioned on the sciatic nerve to evoke muscle contractions. Vehicle (control study) or 5% w/w of HD was topically applied to the dermal area corresponding to the muscle group under study, ensuring proximity for local diffusion and effect.
A study was performed to evaluate the effects of HD on muscle contractility using a validated in vivo rat model. The experimental setup was meticulously designed to measure the contractile force of the hind limb muscle in response to electrical stimulation of the sciatic nerve, providing a quantitative assessment of muscle relaxation and contraction dynamics in the presence of HD. Anesthetized Sprague-Dawley rats were used for this study, ensuring minimal variability in response to HD application. Hind limbs were shaved and then immobilized at the knee and ankle joints to isolate the effect of the targeted muscle group. The distal tendon of the targeted muscle was connected to a high-sensitivity force transducer for accurate measurement of contractile force. An electrical stimulation was applied via electrodes strategically placed on the sciatic nerve, designed to evoke muscle contractions with controlled frequency to determine amplitude, and duration parameters. A specific concentration of 5% w/w of HD in lubricating lotion, prepared on the same day, was topically applied to the skin overlaying the muscle group under study and the control group received a vehicle (lubricating lotion) treatment under identical conditions.

[2] = test system: mouse extensor digitorum longus muscles; assay: Isolated mouse muscle contraction study
Protocol: FIG. 4 is a schematic diagram of a validated isolated mouse muscle contraction study. Muscles were anchored at one end to the chamber floor and connected at the other end to a force transducer. After establishing a baseline response to the electrical field stimulation, HD was added to the buffer at concentrations ranging from 0.01% w/w to 1% w/w, and the impact on muscle contractile force was recorded over time at the frequency of 150 Hz. Additionally, muscles were subjected to varying frequencies of electrical stimulation to evaluate the frequency-dependent effects of HD.
This subsequent study was aimed to elucidate the specific effects of HD on isolated muscle tissue from mice, to quantify its potential use as a muscle relaxant. The study's design allowed for the controlled assessment of muscle contractility in a physiological buffer, minimizing external variables present in in vivo models. Muscle Isolation: The mouse extensor digitorum longus muscles were carefully dissected and mounted in a tissue bath super-fused with oxygenated physiological buffer, ensuring tissue viability throughout the experiment (FIG. 4). Baseline Measurement: Initial contractile responses were established via electrical stimulation at various frequencies, setting a comparative baseline for subsequent HD application effects. HD Application: Differing concentrations of HD (ranging from 0.01% to 1%) were introduced to the buffer. The muscle's contractile force (amplitude, which is the maximum contractile force) was determined to assess HD's concentration-dependent effects at a fixed frequency of 150 Hz (FIG. 6). Stimulation Frequency Adjustment: To explore the frequency-dependent nature of HD's action, muscles underwent varied frequencies of electrical stimulation at a fixed concentration of 0.5% of HD. This protocol aimed to simulate conditions of sporadic muscle spasms.

[3] = test system: hairless mice; assay: Rotarod performance study in hairless mice; format: in vivo; conditions: 5% w/w HD topical
Protocol: FIG. 7 is an illustration of a Rota Rod apparatus in the present disclosure. Once the mice were trained, the rod was rotated at a constant speed of 20 rpm. Then the mice were placed on the rotating rod and length of time they could stay on the rotating rod was measured in seconds.
The Rotarod study was to investigate the skeletal muscle relaxant effects of HD, specifically its impact on motor coordination and balance in hairless mice. The study was structured to assess both the kinetics of HD's effect over time and its efficacy in inducing muscle relaxation. Efficacy of HD was determined post-treatment at intervals of 15, 30, 60, 75, 90 minutes, and another to evaluate the efficacy, particularly noting the peak effect at 30 minutes post-application. Control and Treatment Groups: Each stage included a control group receiving vehicle (Aloe Vera Gel) and a test group treated with HD, 5% w/w HD (0.5 g) in the vehicle (9.5 g Aloe Vera Gel), prepared right before the study. The topical treatment was applied to the thighs of all four limbs for each mouse.

Compound: CCCCC(O)CO (stereo not shown) [HD, 1,2-hexanediol]
- duration of muscle contraction ([1]; 5% w/w HD topical vs vehicle, p<0.05): statistically significant reduction
- mean percentage decline in force output from initial peak contraction ([1]; 5% w/w HD topical, compared to vehicle group): quantitatively significant
- ability to maintain tetanic contraction throughout the stimulus period ([1]; 5% w/w HD topical, electrical stimulation at 150 Hz): unable to maintain tetanic contraction; also recorded: failing to maintain tetanic tension
- inhibitory effect on muscle contraction ([2]; 0.01% HD in buffer, 150 Hz): No significant inhibitory effect; also recorded: minimal effects
- reduction in contractile force ([2]; 0.1% HD in buffer, 150 Hz, vs vehicle controls): ~44%
- frequency-dependent decrease in torque generation (force-frequency relationship) ([2]; 0.5% HD, varied stimulus frequencies, vs vehicle, n=5): inhibition is more complete at higher frequencies of stimulation; also recorded: more significant inhibitory effect
- recovery of mice from the muscle relaxant effect (safety) [3]: all mice recovered
- time spent on Rota Rod ([3]; 30 and 60 minutes post treatment, 20 rpm, vehicle 60 seconds): significant decrease
- recovery from the muscle relaxant effect ([3]; by 75 minutes): recovery trend
- time of most notable muscle relaxant activity post-treatment ([3]; preliminary experiments (data not shown)): 30 min
